Data reported in patent US20240270737A1, “SMALL MOLECULAR INHIBITORS OF STING SIGNALING COMPOSITIONS AND METHODS OF USE” (STINGINN INC., priority 2021, published 2024).

Key:
[1] = system: IFNβ expression (type I IFNβ promoter driving luciferase); test: IFNβ promoter luciferase assay in hTERT-pIFNβ-Glu cells transfected with ISD; type: cell-based, human
Protocol: Inhibition of IFNβ expression was measured by Luciferase induction at 24 hours after transfection of ISD, DMSO is shown (230), ISD treatment only (220) was used as a control, according to an embodiment of the invention;
Inhibition of IFNβ expression was measured by Luciferase induction at 24 hours after transfection of ISD, Mock is shown (210), ISD treatment only (220) was used as a control, according to an embodiment of the invention;
Identification of small molecule inhibitors of STING. In the presence of cytosolic DNA species, STING becomes activated to drive the transcription of cytokines such as type I IFN. Compounds binding to STING via TSA were subsequently examined for their ability to prevent cytosolic DNA species from activating the type I interferon (IFN) promoter, using a live cell assay. This assay comprised immortalized human fibroblasts (hTERT) that were stably transfected with the type I IFN promoter driving luciferase as well as the CMV promoter driving SEAP (hTERT-pIFNβ-Glu). The live cell assay has previously been disclosed in PCT/US2019/025380 entitled IFN-Beta Reporter System for Immortalized Primary Cells inventor Glen N. Barber, which was filed Apr. 2, 2018 and published as WO2019195285, and which is herein incorporated by reference in its entirety and for all purposes. The ability of the small molecules to prevent activation of the type I IFN promoter and the transcription of luciferase, but not SEAP in response to cytosolic DNA species was assessed. The activation of STING, typically by CDNs, in turn activates the transcription factors NF-κB and IRF3, both of which are required to induce the transcriptional stimulation of the Type I IFN promoter, but not the CMV promoter as IRF3 and NF-kB transcription factor binding sites are not contained in the CMV promoter. The assay identified the small molecule Compound W1 in the first screen (HTS), where the level of luciferase was not able to activate the type I IFN promoter or induce the expression of luciferase (see Table I and Table II).
Inhibition of IFNβ expression was measured by Luciferase induction at 24 hours after transfection of ISD. ISD only treatment was used as control.
Inhibition of IFNβ expression was measured by Luciferase induction at 24 hours after transfection of ISD, Mock is shown (210), ISD treatment only (220) was used as a control.
Luciferase assay: hTERT-BJ1 Telomerase Fibroblasts stably expressing the luciferase gene under the control of the interferon-beta promoter and SEAP gene under control of the CMV promoter) (hTERT-pIFNβ-Glu) were generated by the Barber laboratory. Luciferase assay was performed using Secrete-Pair Dual Luminescence Assay Kit from GeneCopoeia following the manufacturer's protocol.

[2] = system: IRF3 translocation induced by dsDNA (ISD); test: IRF3 translocation inhibition, confocal/immunofluorescence after ISD transfection; type: cell-based; conditions: Homo sapiens, % means blockage of IRF3 translocation induced by dsDNA (ISD)
Protocol: Inhibition of IFNβ expression was measured by Luciferase induction at 24 hours after transfection of ISD. […]. […] FIG. 3H qPCR of IFNβ 1 performed in MEFs treated same as in FIG. 3A. FIG. 3I qPCR of CCL5 performed in MEFs treated same as in FIG. 3A.
Immunofluorescence Microscopy: Cells were cultured and treated in their appropriate media on Lab-Tek II chamber slides. Cell were fixed with 4% paraformaldehyde for 15 minutes in at 37° C. and permeabilized with 0.05% Triton X-100 for 5 minutes at room temperature. Immunostaining was performed with rabbit-anti-STING polyclonal, rabbit-anti-IRF3 (Santa Cruz Biotechnology) or rabbit-anti-p65 (Cell Signaling) followed by fluorescence conjugated secondary antibodies (FITC-goat-anti-rabbit) (Invitrogen).

STING activation, Cxcl10 = test: STING activation in MEFs stimulated with ISD (qPCR of Cxcl10, Western blot, confocal); type: cell-based, mouse
Protocol: FIG. 1E are photographs showing Western blot analysis in murine fibroblasts (MEFs) treated the same as FIG. 1A, according to an embodiment of the invention;
FIG. 1F are photographs showing confocal analysis in MEFs treated the same as FIG. 1A, according to an embodiment of the invention;
MEFs were treated with W1 and then stimulated with cytoplasmic DNA (ISD) and examined Cxcl10 expression by qPCR and STING-dependent phosphorylation of TBK1 and IRF3.
Mouse embryonic fibroblasts (MEFs) were obtained from E13.5 embryos by a standard procedure. Bone Marrow Derived Macro-phages (BMDM) were isolated from hind-limb femurs of 8-10 weeks old WT and Trex1 KO (TKO) mice. The hematopoietic cells from the bone marrow were cultured in complete DMEM (Invitrogen) including 10 ng/ml of Mouse Recombinant Colony-Stimulating Factor (M-CSF, R&D Systems) for 10 to 14 days.
Quantitative Real time PCR (qPCR) Total RNA were reverse-transcribed using M-MLV Reverse Transcriptase (Promega). Real-time PCR was performed using Taqman Gene Expression Assay (Applied Biosystems) for innate immune genes and inflammatory cytokines.

Cc1cc([N+](=O)[O-])ccc1S(=O)(=O)Nc1nc2cc(C(F)(F)F)ccc2[nH]1 [Compound W1, 2-methyl-4-nitro-N-[5-(trifluoromethyl)-1H-1,3-benzodiazol-2-yl]benzene-1-sulfonamide]
activation of the type I IFN promoter in response to cytosolic DNA (luciferase) ([1]; 50 μM, 24 hours, ISD 3 μg/ml, hTERT-pIFNβ-Glu cells): inhibited activation of the type I IFN promoter
inhibition at 5 µM ([1]; Homo sapiens): 4%
inhibition at 25 µM [2]: 40 to 50%
production of STING-inducible cytokine Cxcl10 in response to ISD (STING activation, Cxcl10): dramatically decreased
